Test: Water solubility as observed during handling, NMR and crystallization
Type: physicochemical

Substance: Fmoc–Q^SO3H–OH [Compound 14]
- solubility in water (in words): surprisingly high

— article PMC5428020 (Chemical Science, 2017)
